Data reported in patent publication US20210221866A1, “PROTEASE-RESISTANT LIPIDATED GLP-1 ANALOGS” (MEDIMMUNE LIMITED, priority 2015, published 2021).
pEC50: −log10 of the molar value. Where two headings read alike, the source gives them in different places. Numbered stars: 1 amine (or outer) side, 2 acyl side, 3 side chain; on linkers, the order of the positions; unused ones are H or OH. Square brackets hold non-standard residues; d marks the D form. Side chains are listed from the residue outwards. Peptide text beside a SMILES is read from it. * marks the point of attachment. C18 diacid = O=C(O)CCCCCCCCCCCCCCCCC(=O)*; γGlu = O=C(O)[C@H](CCC(=O)[*:2])N[*:1]; αMeF = C[C@](N)(Cc1ccccc1)C(=O)O; αMeK = C[C@](N)(CCCCN)C(=O)O; αMeS = C[C@](N)(CO)C(=O)O; AEEA = NCCOCCOCC(=O)O; Aib = CC(C)(N)C(=O)O

What was measured:
Assay type in all cases: cell-based
[1] = molecular target: T1, human glucose-dependent insulinotropic peptide receptor (GIPR) (Homo sapiens, UniProt P48546); assay: cAMP assay, human GIPR cells; details: cAMP activity, read-out: Primary assay EC50 GIP-R
T1 construct: expressed in transfected cells; host or cells: HEK293 cells or CHO cells
T1 sequence (P48546 22-466): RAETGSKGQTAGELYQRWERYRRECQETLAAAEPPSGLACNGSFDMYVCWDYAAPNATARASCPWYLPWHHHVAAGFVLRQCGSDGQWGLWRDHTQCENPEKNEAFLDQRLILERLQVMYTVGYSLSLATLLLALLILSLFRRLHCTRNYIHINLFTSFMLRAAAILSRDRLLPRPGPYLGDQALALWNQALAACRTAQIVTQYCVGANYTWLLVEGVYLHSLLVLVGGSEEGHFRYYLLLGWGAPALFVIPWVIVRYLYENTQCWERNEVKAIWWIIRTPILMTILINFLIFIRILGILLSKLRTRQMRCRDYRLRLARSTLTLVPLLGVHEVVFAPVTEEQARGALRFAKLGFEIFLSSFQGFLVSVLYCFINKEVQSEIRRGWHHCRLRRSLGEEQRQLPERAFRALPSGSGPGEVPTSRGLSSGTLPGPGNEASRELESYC
Summary of the method: (§1)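 Peptide-stimulated cAMP measured by two-step HTRF after a 30 min room-temperature incubation with receptor-expressing cells (hGLP-1R, hGIPR at 1×10^5 cells/ml; hGCGR at 2×10^5 cells/ml). Duplicate dilutions; EC50 from 4-parameter logistic fit of % Delta F.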

[2] = molecular target: T2, human glucagon receptor (GCGR) (Homo sapiens, UniProt P47871); assay: cAMP assay, human GCGR cells; details: cAMP activity; second determination (n2); read-out: Primary assay EC50 Gluc-R
T2 construct: expressed in transfected cells; host or cells: HEK293 cells or CHO cells
T2 sequence (P47871 26-477): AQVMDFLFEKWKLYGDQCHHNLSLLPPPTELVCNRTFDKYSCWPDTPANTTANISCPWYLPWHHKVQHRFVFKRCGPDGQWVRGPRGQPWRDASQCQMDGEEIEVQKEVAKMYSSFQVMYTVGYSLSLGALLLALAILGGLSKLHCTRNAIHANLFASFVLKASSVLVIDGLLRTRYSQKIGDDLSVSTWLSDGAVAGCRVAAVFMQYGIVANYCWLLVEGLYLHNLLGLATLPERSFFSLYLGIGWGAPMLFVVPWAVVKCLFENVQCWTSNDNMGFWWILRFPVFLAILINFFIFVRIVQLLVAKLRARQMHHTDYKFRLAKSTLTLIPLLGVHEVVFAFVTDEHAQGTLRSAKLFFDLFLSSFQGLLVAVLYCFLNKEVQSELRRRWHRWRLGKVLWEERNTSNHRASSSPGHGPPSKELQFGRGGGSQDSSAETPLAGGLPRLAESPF
Summary of the method: as §1

[3] = molecular target: T3, human GLP-1 receptor (GLP-1R) (Homo sapiens, UniProt P43220); assay: cAMP assay, human GLP-1R cells; details: cAMP activity; for EC50: mean of n1 and n2, read-out: Mean pM GLP-1R
T3 construct: expressed in transfected cells; host or cells: HEK293 cells or CHO cells
T3 sequence (P43220 24-463): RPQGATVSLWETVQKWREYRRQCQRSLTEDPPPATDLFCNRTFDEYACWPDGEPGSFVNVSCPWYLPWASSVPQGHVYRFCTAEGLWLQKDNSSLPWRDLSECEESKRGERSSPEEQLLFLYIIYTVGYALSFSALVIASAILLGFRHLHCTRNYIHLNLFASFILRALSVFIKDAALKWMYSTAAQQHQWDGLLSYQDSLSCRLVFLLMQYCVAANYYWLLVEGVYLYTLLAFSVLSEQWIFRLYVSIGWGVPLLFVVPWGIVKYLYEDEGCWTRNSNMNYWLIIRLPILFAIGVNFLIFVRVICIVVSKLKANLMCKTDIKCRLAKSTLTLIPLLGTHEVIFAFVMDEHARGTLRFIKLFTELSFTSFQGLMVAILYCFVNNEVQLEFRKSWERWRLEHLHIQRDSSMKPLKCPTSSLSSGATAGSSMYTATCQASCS
Summary of the method: as §1

GLP-1R (INS1e cells) = molecular target: T4, GLP-1R (INS1e cells) (Rattus norvegicus, UniProt P32301); assay: INS1e assay, cAMP activity at GLP-1R; details: Table 8, substituted and mono-lipidated peptides; for EC50: mean of n1 and n2, read-out: INS1e assay EC50 Mean pM GLP-1R
T4 construct: endogenous in cells; host or cells: INS1e cells
T4 sequence (P32301 22-463): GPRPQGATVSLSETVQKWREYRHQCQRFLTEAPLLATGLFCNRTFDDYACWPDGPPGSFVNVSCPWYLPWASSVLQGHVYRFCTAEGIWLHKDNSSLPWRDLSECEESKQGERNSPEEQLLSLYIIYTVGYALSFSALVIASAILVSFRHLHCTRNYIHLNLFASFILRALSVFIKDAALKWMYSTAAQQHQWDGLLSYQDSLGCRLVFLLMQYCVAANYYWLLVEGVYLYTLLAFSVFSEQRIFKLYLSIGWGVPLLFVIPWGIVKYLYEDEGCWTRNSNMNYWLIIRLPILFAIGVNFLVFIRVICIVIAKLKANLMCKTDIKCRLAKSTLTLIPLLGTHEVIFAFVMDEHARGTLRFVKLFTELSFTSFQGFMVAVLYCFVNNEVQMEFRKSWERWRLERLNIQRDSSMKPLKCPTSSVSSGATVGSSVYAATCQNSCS

[4] = first determination (n1), read-out: Primary assay EC50 GLP-1R n1
[5] = second determination (n2), read-out: Primary assay EC50 GLP-1R n2
[6] = replicate n1, read-out: INS1e assay EC50 GLP-1R n1
[7] = replicate n2, read-out: INS1e assay EC50 GLP-1R n2

`CC[C@H](C)[C@H](NC(=O)[C@](C)(Cc1ccccc1)NC(=O)[C@H](CCC(=O)O)NC(=O)[C@H](CCCCNC(=O)COCCOCCNC(=O)COCCOCCNC(=O)CC[C@H](NC(=O)CCCCCCCCCCCCCCCCC(=O)O)C(=O)O)NC(=O)[C@H](C)NC(=O)[C@H](C)NC(=O)[C@H](CCC(=O)O)NC(=O)CNC(=O)[C@H](CCC(=O)O)NC(=O)[C@H](CC(C)C)NC(=O)[C@](C)(Cc1ccccc1)NC(=O)[C@H](CO)NC(=O)[C@H](CO)NC(=O)[C@@H](NC(=O)[C@H](CC(=O)O)NC(=O)[C@H](CO)NC(=O)[C@@H](NC(=O)[C@](C)(Cc1ccccc1)NC(=O)[C@H](CO)NC(=O)CNC(=O)[C@H](CCC(=O)O)NC(=O)C(C)(C)NC(=O)[C@@H](N)Cc1c[nH]cn1)[C@@H](C)O)C(C)C)C(=O)N[C@@H](C)C(=O)N[C@@](C)(Cc1ccccc1)C(=O)N[C@H](C(=O)N[C@H](C(=O)N[C@@](C)(CCCCN)C(=O)NCC(=O)NCC(N)=O)C(C)C)C(C)C` [compound 46] was tested, and the pEC50 ([1]; first determination (n1)) was at most 7.59, the pEC50 ([1]; second determination (n2)) was at most 7.59 and the pEC50 [2] was at most 7.59. For the same compound, the pEC50 [3, 4] was 9.04, the EC50 [3] was 1560 pM and the pEC50 [3, 5] was 8.66. The EC50 (GLP-1R (INS1e cells)) was 68000 pM, the pEC50 (GLP-1R (INS1e cells); [6]) was 7.28 and the pEC50 (GLP-1R (INS1e cells); [7]) was 7.08.
Work on `CC[C@H](C)[C@H](NC(=O)[C@](C)(Cc1ccccc1)NC(=O)[C@H](CCC(=O)O)NC(=O)[C@](C)(CCCCN)NC(=O)[C@H](C)NC(=O)[C@H](C)NC(=O)[C@H](CCC(=O)O)NC(=O)CNC(=O)[C@H](CCC(=O)O)NC(=O)[C@H](CC(C)C)NC(=O)[C@](C)(Cc1ccccc1)NC(=O)[C@H](CO)NC(=O)[C@](C)(CO)NC(=O)[C@@H](NC(=O)[C@H](CC(=O)O)NC(=O)[C@H](CO)NC(=O)[C@@H](NC(=O)[C@](C)(Cc1ccccc1)NC(=O)[C@H](CO)NC(=O)CNC(=O)[C@H](CCC(=O)O)NC(=O)C(C)(C)NC(=O)[C@@H](N)Cc1c[nH]cn1)[C@@H](C)O)C(C)C)C(=O)N[C@@H](CCCCNC(=O)COCCOCCNC(=O)COCCOCCNC(=O)CC[C@H](NC(=O)CCCCCCCCCCCCCCCCC(=O)O)C(=O)O)C(=O)N[C@@](C)(Cc1ccccc1)C(=O)N[C@H](C(=O)N[C@H](C(=O)N[C@@](C)(CCCCN)C(=O)NCC(=O)NCC(N)=O)C(C)C)C(C)C` [compound 105] (H-H[Aib]EGS[αMeF]TSDV[αMeS]S[αMeF]LEGEAA[αMeK]E[αMeF]IK([AEEA-AEEA-γGlu-C18 diacid])[αMeF]VV[αMeK]GG-NH2; N-terminus assumed) yielded a pEC50 ([1]; first determination (n1)) of at most 7.60, a pEC50 ([1]; second determination (n2)) of at most 7.60 and a pEC50 [2] of at most 7.60. For the same compound, the pEC50 [3, 4] was 10.68, the EC50 [3] was 18 pM and the pEC50 [3, 5] was 10.83. It also gave an EC50 (GLP-1R (INS1e cells)) of 970 pM, a pEC50 (GLP-1R (INS1e cells); [6]) of 9.66 and a pEC50 (GLP-1R (INS1e cells); [7]) of 8.76.
